SMILES strings stand for the structures. pIC50: −log10 of the molar value.

In assay [1] the test system is P388. Briefly: The compound was tested for susceptibility to […] murine P388/S leukemia cells under continuous exposure conditions for 3-4 days. In kind it is functional, cell-based. The note with it: Mus musculus.
Assay [2] deals with P388. The experiment in a line: The compound was tested for susceptibility to P-glycoprotein (PgP) mediated drug efflux using murine P388/VMDRC.04 cells under continuous exposure conditions for 3-4 days. In kind it is functional, cell-based. Conditions: Mus musculus.
Assay [3] can be described thus: The compound was tested for its ability to maintain a irreversible mitotic block 10 hr after drug washout using flow cytometric analysis of U937 human histiocytic lymphoma cells. In kind it is functional. The note with it: U-937, 10 h. (Flow cytometry measures light scatter and fluorescence of single cells or particles in a stream.)
The subject of assay [4] is P388. Briefly: Fold resistance was calculated as IC50 ratio between retrovirally transformed P388/VMDRC.04 and parental P388/S cells. It is filed as functional, Mus musculus.
Assay [5] concerns DLD-1. The experiment in a line: The compound was tested for cell growth inhibition against DLD-1 human colon cancer cells under continuous exposure conditions for 3-4 days. In kind it is functional, cell-based.

One may read the pIC50 as the negative decadic logarithm of the IC50, by convention in mol/L. A higher pIC50 goes with a small IC50. A word on the IC99: it is the concentration at which the effect reaches the 99% level. A lower IC99 goes with greater potency. In the case of `C=C1C[C@@H]2CC[C@@]34C[C@@H]5O[C@@H]6[C@@H](O[C@H]7CC[C@H](CC(=O)O[C@@H]8[C@@H](CC)[C@@H]9O[C@H](CO)[C@@H](O)C[C@@H]9O[C@H]8C[C@H]8O[C@@H](CC[C@@H]1O2)C[C@@H](C)C8=C)O[C@@H]7[C@@H]6O3)[C@H]5O4`, the negative-log IC50 (pIC50) in assay [1] is 8.80; in assay [2], 7.80; in assay [5] it was 8.22. The same compound had a concentration for an effect of 99% (IC99) in assay [3] of 1 µM. Besides, the FR in assay [4] is 10.

On to `C=C1C[C@@H]2CCC34C[C@@H]5O[C@@H]6[C@@H](O[C@H]7CC[C@H](CC(=O)O[C@@H]8[C@@H](C)[C@@H]9O[C@@H]%10C[C@]%11(C[C@@H]%12O[C@]%13(C[C@H](C)[C@@H]%14O[C@H]([C@@H](O)C[C@@H](O)CO)C[C@@H]%14O%13)C[C@H](C)[C@@H]%12O%11)O[C@@H]%10C[C@@H]9O[C@H]8C[C@H]8O[C@@H](CC[C@@H]1O2)C[C@@H](C)C8=C)O[C@@H]7[C@@H]6O3)[C@H]5O4`, for which the figures for the pIC50 in assay [1], in assay [2] and in assay [5] were 9.22, 8.77 and 9.13, respectively. For the same compound, in assay [3], the IC99 was 0.025 µM. Further, the FR in assay [4] is listed as 2.8.

As for `C=C1C[C@@H]2CC[C@@]34C[C@@H]5O[C@@H]6[C@@H](O[C@H]7CC[C@H](CC(=O)O[C@@H]8[C@@H](C)[C@@H]9O[C@@H]%10CCO[C@@H]%10C[C@@H]9O[C@H]8C[C@H]8O[C@@H](CC[C@@H]1O2)C[C@@H](C)C8=C)O[C@@H]7[C@@H]6O3)[C@H]5O4`, the pIC50 was 8.89 in assay [1], 8.57 in assay [2] and 8.59 in assay [5]. The compound also displayed an IC99 in assay [3] of more than 1 µM. The FR in assay [4] is recorded as 2.1.

Consider `C=C1C[C@@H]2CC[C@@]34C[C@@H]5O[C@@H]6[C@@H](O[C@H]7CC[C@H](CC(=O)O[C@@H]8[C@@H](C)[C@@H]9O[C@@H]%10CC(O)O[C@@H]%10C[C@@H]9O[C@H]8C[C@H]8O[C@@H](CC[C@@H]1O2)C[C@@H](C)C8=C)O[C@@H]7[C@@H]6O3)[C@H]5O4` (some centres not stated), for which the pIC50 in assay [1] was 8.82; in assay [2] it was 8.42; in assay [5], 8.68. The IC99 in assay [3] is more than 1 µM. The FR in assay [4] was 2.5.

Turning to `C=C1C[C@@H]2CC[C@@]34C[C@@H]5O[C@@H]6[C@@H](O[C@H]7CC[C@H](CC(=O)O[C@@H]8[C@@H](C)[C@@H]9O[C@@H]%10CCOC%10(O)C[C@@H]9O[C@H]8C[C@H]8O[C@@H](CC[C@@H]1O2)C[C@@H](C)C8=C)O[C@@H]7[C@@H]6O3)[C@H]5O4` (some centres not stated), the pIC50 in assay [1] is 8.51; in assay [2], 8.20; in assay [5], 8.28. The same compound came in with an IC99 in assay [3] of 1 µM. Besides, the FR in assay [4] was 2.

In the case of `C=C1C[C@@H]2CC[C@@]34C[C@@H]5O[C@@H]6[C@@H](O[C@H]7CC[C@H](CC(=O)O[C@H]8C[C@@H]9O[C@H](CO)[C@@H](O)C[C@@H]9O[C@H]8C[C@H]8O[C@@H](CC[C@@H]1O2)C[C@@H](C)C8=C)O[C@@H]7[C@@H]6O3)[C@H]5O4`, in assay [5], the pIC50 was 6.64.

Turning to `C=C1C[C@@H]2CC[C@@]34C[C@@H]5O[C@@H]6[C@@H](O[C@H]7CC[C@H](CC(=O)O[C@@H]8[C@@H](C)[C@@H]9O[C@H](CO)[C@H](O)C[C@@H]9O[C@H]8C[C@H]8O[C@@H](CC[C@@H]1O2)C[C@@H](C)C8=C)O[C@@H]7[C@@H]6O3)[C@H]5O4`, the pIC50 in assay [1] was 9.15; in assay [2], 8.09; in assay [5] it was 8.47. In assay [3], this compound displayed an IC99 of 0.22 µM. Moreover, the FR in assay [4] is given as 12.

Take `C=C1C[C@@H]2CC[C@@]34C[C@@H]5O[C@@H]6[C@@H](O[C@H]7CC[C@H](CC(=O)O[C@@H]8[C@@H](C)[C@@H]9O[C@H](CCO)[C@H](O)C[C@@H]9O[C@H]8C[C@H]8O[C@@H](CC[C@@H]1O2)C[C@@H](C)C8=C)O[C@@H]7[C@@H]6O3)[C@H]5O4`: the pIC50 was 8.66 in assay [1], 8.06 in assay [2] and 8.34 in assay [5]. Further, the IC99 in assay [3] is more than 0.88 µM. Moreover, in assay [4], the FR is 4.

`C=C1C[C@@H]2CC[C@@]34C[C@@H]5O[C@@H]6[C@@H](O[C@H]7CC[C@H](CC(=O)O[C@@H]8C[C@@H]9O[C@H](CO)[C@@H](O)C[C@@H]9O[C@H]8C[C@H]8O[C@@H](CC[C@@H]1O2)C[C@@H](C)C8=C)O[C@@H]7[C@@H]6O3)[C@H]5O4` had a negative logarithm of the IC50 (pIC50) in assay [5] of 6.21.

Consider `C=C1C[C@@H]2CC[C@@]34C[C@@H]5O[C@@H]6[C@@H](O[C@H]7CC[C@H](CC(=O)O[C@@H]8[C@@H](C)[C@@H]9O[C@H](CCO)[C@@H](O)C[C@@H]9O[C@H]8C[C@H]8O[C@@H](CC[C@@H]1O2)C[C@@H](C)C8=C)O[C@@H]7[C@@H]6O3)[C@H]5O4`, for which the results for the pIC50 in assay [1], in assay [2] and in assay [5] were 8.77, 8.80 and 8.44, respectively. In assay [3], this compound registered an IC99 of more than 1 µM. In addition, in assay [4], the FR is on record as 9.4.

On to `CC(=O)O[C@H]1C(=O)[C@@]2(C)[C@H]([C@H](OC(=O)c3ccccc3)[C@]3(O)C[C@H](OC(=O)[C@H](O)[C@@H](NC(=O)c4ccccc4)c4ccccc4)C(C)=C1C3(C)C)[C@]1(OC(C)=O)CO[C@@H]1C[C@@H]2O` [PACLITAXEL], for which the figures for the pIC50 in assay [1], in assay [2] and in assay [5] were 7.80, 6.77 and 7.57, respectively. The compound further registered an IC99 in assay [3] of 0.23 µM. Also, the FR in assay [4] was 11.

With `C=C1C[C@@H]2CC[C@@]34C[C@@H]5O[C@@H]6[C@@H](O[C@H]7CC[C@H](CC(=O)O[C@@H]8[C@@H](C)[C@@H]9O[C@H](CCOC)[C@H](O)C[C@@H]9O[C@H]8C[C@H]8O[C@@H](CC[C@@H]1O2)C[C@@H](C)C8=C)O[C@@H]7[C@@H]6O3)[C@H]5O4`, the figures for the pIC50 in assay [1], in assay [2] and in assay [5] were 9.26, 8.82 and 8.92, respectively. The same compound registered an IC99 in assay [3] of more than 0.65 µM. Besides, the FR in assay [4] is 2.7.

Source of the values: ChEMBL document CHEMBL1133056, “Structure-activity relationships of halichondrin B analogues: modifications at C.30-C.38” (Bioorg Med Chem Lett, 2000).
